From patent US11931424B2, “Combination MCL-1 inhibitors with anti-body drug conjugates” (Gilead Sciences, Inc., priority 2021, dated 2024)

Test system: panel of breast cancer cell lines
Test: Compound A with targeted agents and chemotherapies, 72-hour in vitro proliferation assays
Assay type: cell-based
Conditions: compound A × partner, 72-hour proliferation

## Cc1c(-c2ccc(N3CCc4cccc(C(=O)Nc5nc6ccccc6s5)c4C3)nc2C(=O)O)cnn1CC12CC3CC(CC(C3)C1)C2 [Compound A-1331852]
BT-20 cell line
  Best CI: 0.01
  Bliss Volume: 68.96
  HSA volume: 70.29
  Loewe Volume: 70.26
  Synergy Score: 162.62
CAL-51 cell line
  Best CI: 0.01
  Bliss Volume: 56.43
  HSA volume: 55.36
  Loewe Volume: 56.58
  Synergy Score: 118.96
CAL-85-1 cell line
  Best CI: 0.01
  Bliss Volume: 49.08
  HSA volume: 54.69
  Loewe Volume: 53.39
  Synergy Score: 114.90
CAL-120 cell line
  Best CI: 0.04
  Bliss Volume: 28.08
  HSA volume: 26.51
  Loewe Volume: 28.14
  Synergy Score: 55.20
CAL-148 cell line
  Best CI: 0.01
  Bliss Volume: 51.23
  HSA volume: 55.15
  Loewe Volume: 56.80
  Synergy Score: 129.75
CAMA-1 cell line
  Best CI: 0.02
  Bliss Volume: 41.48
  HSA volume: 38.74
  Loewe Volume: 40.35
  Synergy Score: 89.71
DU-4475 cell line
  Best CI: 0.41
  Bliss Volume: 34.50
  HSA volume: 31.29
  Loewe Volume: 31.62
  Synergy Score: 49.81
EVSA-T cell line
  Best CI: 0.11
  Bliss Volume: 31.72
  HSA volume: 28.03
  Loewe Volume: 29.10
  Synergy Score: 63.11
HCC38
  Best CI: 0.03
  Bliss Volume: 36.56
  HSA volume: 31.80
  Loewe Volume: 30.82
  Synergy Score: 60.48
HCC70
  Best CI: 0.00
  Bliss Volume: 73.73
  HSA volume: 74.12
  Loewe Volume: 74.78
  Synergy Score: 173.58
HCC1143 cell line
  Best CI: 0.00
  Bliss Volume: 53.10
  HSA volume: 51.70
  Loewe Volume: 52.79
  Synergy Score: 89.24
HCC1569
  Best CI: 0.01
  Bliss Volume: 43.44
  HSA volume: 40.52
  Loewe Volume: 40.04
  Synergy Score: 86.99
HCC1806
  Best CI: 0.00
  Bliss Volume: 83.58
  HSA volume: 85.67
  Loewe Volume: 85.91
  Synergy Score: 183.39
HCC1937
  Best CI: 0.00
  Bliss Volume: 69.83
  HSA volume: 71.58
  Loewe Volume: 71.06
  Synergy Score: 157.43
HCC1954
  Best CI: 0.01
  Bliss Volume: 53.64
  HSA volume: 55.54
  Loewe Volume: 55.53
  Synergy Score: 121.26
HCC2218
  Best CI: 0.01
  Bliss Volume: 47.29
  HSA volume: 47.84
  Loewe Volume: 46.72
  Synergy Score: 99.88
HDQ-P1
  Best CI: 0.01
  Bliss Volume: 58.35
  HSA volume: 61.13
  Loewe Volume: 60.82
  Synergy Score: 132.76
HMC-1-8
  Best CI: 0.11
  Bliss Volume: 21.81
  HSA volume: 19.39
  Loewe Volume: 20.77
  Synergy Score: 39.01
JIMT-1
  Best CI: 0.01
  Bliss Volume: 57.07
  HSA volume: 57.74
  Loewe Volume: 57.21
  Synergy Score: 126.70
KPL-1
  Best CI: 0.03
  Bliss Volume: 26.84
  HSA volume: 25.88
  Loewe Volume: 26.65
  Synergy Score: 36.44
